This note sets out measurements from patent US5036059A, “1,4-Dihydropyridine-3-carboxylate derivatives” (Nippon Shinyaku Company, Limited, priority 1984, dated 1991).

Experiment [1] concerns rats (with normal blood pressure). Description: Hypotensive action, mean blood pressure of femoral artery in unanesthetized normotensive rats, oral. The class given is in vivo. The conditions noted are these: Rattus norvegicus, read-out: % Decreases in Mean Blood Pressure [at peak effect]; for inhibition in vivo at 1 mg/kg: 1 mg/kg oral; for inhibition in vivo at 3 mg/kg: 3 mg/kg oral; for inhibition in vivo at 10 mg/kg: 10 mg/kg oral. The protocol: Blood pressure of femoral artery of rats (with normal blood pressure) under unanesthetized condition was measured directly using a pressure tranducer.
The present invention compounds were given orally at doses of 1, 3 and 10 mg/kg, and changes in blood pressure were continuously recorded. Percent decreases of mean blood pressure at the peak effect were calculated. The maximum changes in mean blood pressure (%) were shown as "hypotensive action" (Table 2).
Hypotensive action of diltiazem (which is a known hypotensive drug) measured by the same method at the doses of 3, 10 and 30 mg/kg were 0, 11.2 and 33.0%, respectively. Hypotensive action of the compound of Example 4 which is one of the most representative compounds of this invention was tested using spontaneously hypertensive rats and was compared with those of Nifedipine and Diltiazem hydrochloride. The method applied was that the drugs were orally given to the rats of which systolic arterial blood pressure were higher than 180 mmHg when it was measured plethysmographically using tail arteries. (Table 3)

The test system of the next experiment is guinea pig heart. Description: Coronary vasodilating action, constant pressure perfusion of isolated guinea pig heart (Langendorff). The note with it: Cavia porcellus, via coronary artery, read-out: Perfusion Increasing Rate; for activation at 0.001 mg: 10^-6 gram/heart; for activation at 0.0001 mg: 10^-7 gram/heart. The procedure:
Constant pressure perfusion samples of guinea pig heart isolated by a method according to Langendorff were treated with the present invention compounds by administration via coronary artery and the effect was examined (Table 1).
With reference to coronary vasodilating action of diltiazem measured by the same method, the increasing rates in perfusion by administration of 10^-7, 10^-6 and 10^-5 gram/heart were 4, 16 and 55%, respectively.

Consider `COC(=O)C1=C(C)NC(C)=C(P2(=O)OCCCO2)C1c1ccccc1OC(F)F` (centres unmarked) [Example 53, Methyl 4-(2-difluoromethoxyphenyl)-2,6-dimethyl-5-(2-oxo-1,3,2-dioxaphosphorinan-2-yl)-1,4-dihydropyridine-3-carboxylate], for which, in experiment [1], the inhibition in vivo at 1 mg/kg amounted to 24.5%, the inhibition in vivo at 3 mg/kg stood at 45.4% and the inhibition in vivo at 10 mg/kg was 49.7%. Moreover, in the experiment on guinea pig heart, the activation at 0.001 mg came out at 25% and the activation at 0.0001 mg worked out at 16%.
Take `CCC1(CC)COP(=O)(C2=C(C)NC(C)=C(C(=O)OCCN(C)Cc3ccccc3)C2c2cccc([N+](=O)[O-])c2)OC1` (centres unmarked) [Example 22, 2-(N-Benzyl-N-methylamino)-ethyl 5-(5,5-diethyl-2-oxo-1,3,2-dioxaphosphorinan-2-yl)-2,6-dimethyl-4-(3-nitrophenyl)-1,4-dihydropyridine-3-carboxylate]: in experiment [1], the inhibition in vivo at 1 mg/kg stood at 7.3%, the inhibition in vivo at 3 mg/kg stood at 10.4% and the inhibition in vivo at 10 mg/kg was determined as 18.4%. In the experiment with guinea pig heart, the activation at 0.001 mg is 31% and the activation at 0.0001 mg was 21%.
`CC1=C(C(=O)OCCN(C)Cc2ccccc2)C(c2cccc([N+](=O)[O-])c2)C(P2(=O)OC(C)CC(C)O2)=C(C)N1` (centres unmarked) [Example 17, 2-(N-Benzyl-N-methylamino)-ethyl 2,6-dimethyl-5-(4,6-dimethyl-2-oxo-1,3,2-dioxaphosphorinan-2-yl)-4-(3-nitrophenyl)-1,4-dihydropyridine-3-carboxylate]: in experiment [1], the inhibition in vivo at 1 mg/kg stood at 24.8%, the inhibition in vivo at 3 mg/kg came to 36.8% and the inhibition in vivo at 10 mg/kg is 47%. For the same compound, in the experiment on guinea pig heart, the activation at 0.001 mg came out at 23% and the activation at 0.0001 mg was found to be 10%.
With `CCOC(=O)C1=C(C)NC(C)=C(P2(=O)OCC(C(C)C)CO2)C1c1cccc([N+](=O)[O-])c1` (centres unmarked) [Example 32, Ethyl 2,6-dimethyl-4-(3-nitrophenyl)-5-(5-isopropyl-2-oxo-1,3,2-dioxaphosphorinan-2-yl)-1,4-dihydropyridine-3-carboxylate], in experiment [1], the inhibition in vivo at 1 mg/kg amounted to 7.8%, the inhibition in vivo at 3 mg/kg was determined as 21.2% and the inhibition in vivo at 10 mg/kg was found to be 30.5%. In the experiment on guinea pig heart, the activation at 0.001 mg turned out to be 77% and the activation at 0.0001 mg amounted to 24%.
As to `CC1=C(C(=O)OCCN(C)Cc2ccccc2)C(c2ccccc2C(F)(F)F)C(P2(=O)OCCCO2)=C(C)N1` (centres unmarked) [Example 52], in experiment [1], the inhibition in vivo at 1 mg/kg came to 18.4%, the inhibition in vivo at 3 mg/kg was 37.2% and the inhibition in vivo at 10 mg/kg was determined as 42.8%. In the experiment on guinea pig heart, the activation at 0.001 mg was determined as 62% and the activation at 0.0001 mg was 10%.
Take `CC1=C(C(=O)OCCOCc2ccccc2)C(c2cccc([N+](=O)[O-])c2)C(P2(=O)OCC(C)(C)CO2)=C(C)N1` (centres unmarked) [Example 12, 2-Benzyloxyethyl 2,6-dimethyl-5-(5,5-dimethyl-2-oxo-1,3,2-dioxaphosphorinan-2-yl)-4-(3-nitrophenyl)-1,4-dihydropyridine-3-carboxylate]: in the experiment on guinea pig heart, the activation at 0.001 mg was determined as 67% and the activation at 0.0001 mg was determined as 14%.
Consider `COC(=O)C1=C(C)NC(C)=C(P2(=O)OCC3(CCCCC3)CO2)C1c1cccc([N+](=O)[O-])c1` (centres unmarked) [Example 40, Methyl 2,6-dimethyl-4-(3-nitrophenyl)-5-(3-oxo-2,4-dioxa-3-phosphoaspiro(5,5)undecan-3-yl)-1,4-dihydropyridine-3-carboxylate], for which, in the experiment with guinea pig heart, the activation at 0.001 mg was found to be 82% and the activation at 0.0001 mg was found to be 29%.
`CC1=C(C(=O)OCCN(C)Cc2ccccc2)C(c2cccc([N+](=O)[O-])c2)C(P2(=O)OC(C)(C)C(C)(C)O2)=C(C)N1` (centres unmarked) [Example 48, 2-(N-Benzyl-N-methylamino)-ethyl 2,6-dimethyl-4-(3-nitrophenyl)-5-(2-oxo-4,4,5,5-tetramethyl-1,3,2-dioxaphospholan-2-yl)-1,4-dihydropyridine-3-carboxylate]: in the experiment with guinea pig heart, the activation at 0.001 mg worked out at 35% and the activation at 0.0001 mg was found to be 13%.
On to `CC1=C(C(=O)OCCN(C)Cc2ccccc2)C(c2ccccc2C(F)(F)F)C(P2(=O)OCC(C)(C)CO2)=C(C)N1` (centres unmarked) [Example 62, 2-(N-Benzyl-N-methylamino)-ethyl 2,6-dimethyl-5-(5,5-dimethyl-2-oxo-1,3,2-dioxaphosphorinan-2-yl)-4-(2-trifluoromethylphenyl)-1,4-dihydropyridine-3-carboxylate], for which, in experiment [1], the inhibition in vivo at 1 mg/kg stood at 10.6%, the inhibition in vivo at 3 mg/kg came to 37.4% and the inhibition in vivo at 10 mg/kg was 48.3%. Further, in the experiment on guinea pig heart, the activation at 0.001 mg was determined as 70% and the activation at 0.0001 mg was found to be 19%.
For `CCOC(=O)C1=C(C)NC(C)=C(P2(=O)OCC3(CCC3)CO2)C1c1ccccc1[N+](=O)[O-]` (centres unmarked) [Example 39, Ethyl 2,6-dimethyl-4-(2-nitrophenyl)-5-(7-oxo-6,8-dioxa-7-phosphaspiro(3,5)nonan-7-yl)-1,4-dihydropyridine-3-carboxylate], in the experiment on guinea pig heart, the activation at 0.001 mg is 31% and the activation at 0.0001 mg is 12%.
As to `CCOC(=O)C1(C(=O)OCC)COP(=O)(C2=C(C)NC(C)=C(C(=O)OC)C2c2ccccc2[N+](=O)[O-])OC1` (centres unmarked) [Example 46, Methyl 5-(5,5-diethoxycarbonyl-2-oxo-1,3,2-dioxaphosphorinan-2-yl)-2,6-dimethyl-4-(2-nitrophenyl)-1,4-dihydropyridine-3-carboxylate], in the experiment on guinea pig heart, the activation at 0.001 mg is 19% and the activation at 0.0001 mg was 12%.
For `CCOC(=O)C1=C(C)NC(C)=C(P2(=O)OCC3(CCCCC3)CO2)C1c1ccccc1[N+](=O)[O-]` (centres unmarked) [Example 43, Ethyl 2,6-dimethyl-4-(2-nitrophenyl)-5-(3-oxo-2,4-dioxa-3-phosphaspiro(5,5)undecan-3-yl)-1,4-dihydropyridine-3-carboxylate], in the experiment on guinea pig heart, the activation at 0.001 mg came to 56% and the activation at 0.0001 mg stood at 12%.
In the same order, the values of `CC1=C(C(=O)OCCN(C)C)C(c2cccc([N+](=O)[O-])c2)C(P2(=O)OCC(C)(C)CO2)=C(C)N1` (centres unmarked) [Example 10, 2-(N,N-Dimethylamino)ethyl 2,6-dimethyl-5-(5,5-dimethyl-2-oxo-1,3,2-dioxaphosphorinan-2-yl)-4-(3-nitrophenyl)-1,4-dihydropyridine-3-carboxylate] are 22% and 12%.
In the case of `CCCOCCOC(=O)C1=C(C)NC(C)=C(P2(=O)OC(C)(C)C(C)(C)O2)C1c1cccc([N+](=O)[O-])c1` (centres unmarked) [Example 49, 2-n-Propoxyethyl 2,6-dimethyl-4-(3-nitrophenyl)-5-(2-oxo-4,4,5,5-tetramethyl-1,3,2-dioxaphospholan-2-yl)-1,4-dihydropyridine-3-carboxylate], in the experiment on guinea pig heart, the activation at 0.001 mg came out at 34% and the activation at 0.0001 mg is 14%.
With `CCOC(=O)C1(C(=O)OCC)COP(=O)(C2=C(C)NC(C)=C(C(=O)OCCN(C)Cc3ccccc3)C2c2cccc([N+](=O)[O-])c2)OC1` (centres unmarked) [Example 45, 2-(N-Benzyl-N-methylamino)-ethyl 5-(5,5-diethoxycarbonyl-2-oxo-1,3,2-dioxaphosphorinan-2-yl)-2,6-dimethyl-4-(3-nitrophenyl)-1,4-dihydropyridine-3-carboxylate], in the experiment on guinea pig heart, the activation at 0.001 mg was 29% and the activation at 0.0001 mg stood at 10%.
As to `COC(=O)C1=C(C)NC(C)=C(P2(=O)OCCCO2)C1c1cccc(Cl)c1Cl` (centres unmarked) [Example 56, Methyl 4-(2,3-dichlorophenyl)-2,6-dimethyl-5-(2-oxo-1,3,2-dioxaphosphorinan-2-yl)-1,4-dihydropyridine-3-carboxylate], in the experiment with guinea pig heart, the activation at 0.001 mg was 75% and the activation at 0.0001 mg was found to be 55%.
In the case of `CCC1COP(=O)(C2=C(C)NC(C)=C(C(=O)OCCN(C)Cc3ccccc3)C2c2cccc([N+](=O)[O-])c2)OC1` (centres unmarked) [Example 29, 2-(N-Benzyl-N-methylamino)-ethyl 5-(5-ethyl-2-oxo-1,3,2-dioxaphosphorinan-2-yl)-2,6-dimethyl-4-(3-nitrophenyl)-1,4-dihydropyridine-3-carboxylate], in the experiment with guinea pig heart, the activation at 0.001 mg amounted to 59% and the activation at 0.0001 mg was 34%.
Consider `CC1=C(C(=O)OCCN(C)Cc2ccccc2)C(c2cccc([N+](=O)[O-])c2)C(P2(=O)O[C@H](C)C[C@@H](C)O2)=C(C)N1` (stereo partly drawn) [Example 20, 2-(N-Benzyl-N-methylamino)-ethyl 2,6-dimethyl-5-[4(R),6(R)-dimethyl-2-oxo-1,3,2-dioxaphosphorinan-2-yl]-4-(3-nitrophenyl)-1,4-dihydropyridine-3-carboxylate], for which, in the experiment with guinea pig heart, the activation at 0.001 mg amounted to 32% and the activation at 0.0001 mg was 10%.
Turning to `CCC1(CC)COP(=O)(C2=C(C)NC(C)=C(C(=O)OC)C2c2ccccc2[N+](=O)[O-])OC1` (centres unmarked) [Example 24, Methyl 5-(5,5-diethyl-2-oxo-1,3,2-dioxaphosphorinan-2-yl)-2,6-dimethyl-4-(2-nitrophenyl)-1,4-dihydropyridine-3-carboxylate], in the experiment with guinea pig heart, the activation at 0.001 mg was found to be 41% and the activation at 0.0001 mg was 12%.
